Like-named read-outs stand apart in the source and are kept apart here.
What was measured:
Myosoton aquaticum = assay: pot-culture method, stem and leaf treatment in greenhouse, fresh weight inhibition rate 20 days after treatment (Gowing method); format: in vivo
Description: (§1) Capsella bursa-pastoris, Myosoton aquaticum, Alopecurus japonicus were collected from corn fields in Huangdao Experimental Base of Shandong Province.
(§2) The above weeds were cultivated by a pot culture method. […] Full and uniform weed seeds were selected, soaked in warm water at 25° C. for 6 hours, and germinated in a 28° C. biochemical incubator (darkness). […] A certain amount of water was added to the enamel pan regularly to keep the soil moist.
(§3) The technical materials were all dissolved in acetone, and diluted with an aqueous solution containing 0.1% emulsifier T-80. The dilution is performed as required.
(§4) A ratio of the active ingredient A to the active ingredient B and amounts thereof in each group depends on the characteristics and toxicity of the two agents, as well as the main application purpose of a corresponding formulation. Based on the pre-tests in this study, the dosage of the active ingredient A and the active ingredient B applied alone and in combination were shown in the tables, and a total 15 groups were designed. Water containing the solvent and emulsifier same with the above groups but free of the agents was used as a blank control.
(§5) 3 pots with 20 weed seeds per pot were treated in one treatment with […] per treatment, that is, a total of 60 weeds were treated in one treatment.
(§6) The agents were used for only once in the experiment. In the stage of weeds with 2 leaves and 1 core, the weeds were thinned out to maintain 15 weeds per pot and 45 weeds for each treatment, then continued to be cultured to 3-5-leaves stage of Capsella bursa-pastoris and Myosoton aquaticum, and 3-leaves and 1-core stage of Alopecurus japonicus, and treated.
(§7) The well-cultured weeds were evenly placed on a platform with an area of 0.5 m^2, and a solution of agents was sprayed on the stems and leaves thereof by the 3WP-2000-type walking spray tower at a dosage of 30 kg/ha and at a spray pressure of 0.3 MPa. After all the solution was sprayed, the valve was closed. After 30 seconds, the door of the spray tower was opened, and the nutritional bowl was taken out. Then the valve was opened, and the spray tube was cleaned by spraying 50 ml of water.
(§8) A pot-culture method was employed. For the cultivation of weeds, please refer to the Section 1.2, and “Pesticide guidelines for laboratory bioactivity tests—herbicides”. As to a method for applying agents, please refer to the section 2.3.2, that is, a method for treating stems and leaves was employed.
(§9) A method for investigating absolute number was employed, wherein whole seedlings of survival weeds were cut off with a blade along the soil surface, and the fresh weight of the weeds was weighed with an analytical balance. For dead weeds, the fresh weight thereof was zero.
(§10) The investigation was performed after 20 days of the treatment for only once.
(§11) Wherein, in the formula, X represented the fresh weight inhibition rate of the active ingredient A in a dosage of P, and Y represented the fresh weight inhibition rate of the active ingredient B in a dosage of Q.

Capsella bursa-pastoris = assay: as above; format: in vivo
Description: as §1, §2, §3, §4, §5, §6, §7, §8, §9, §10, §11

[1] = Myosoton aquaticum, 480 h, read-out: actual fresh weight inhibition rate
[2] = Capsella bursa-pastoris, 480 h, read-out: actual fresh weight inhibition rate

Q: `Cc1ccc(NC(=O)N(C)C)cc1Cl` [chlorotoluron] was tested. Which pest or weed control at 1500 g/ha (Myosoton aquaticum; Myosoton aquaticum, 480 h, dosage 1500 g/hm^2, read-out: actual fresh weight inhibition rate) did it give?
A: The pest or weed control at 1500 g/ha was 34.7%.

Q: What about the pest or weed control at 2250 g/ha (Myosoton aquaticum; Myosoton aquaticum, 480 h, dosage 2250 g/hm^2, read-out: actual fresh weight inhibition rate) of the same compound?
A: The pest or weed control at 2250 g/ha was 43.8%.

Q: What about the pest or weed control at 3000 g/ha (Myosoton aquaticum; Myosoton aquaticum, 480 h, dosage 3000 g/hm^2, read-out: actual fresh weight inhibition rate) of the same compound?
A: Its pest or weed control at 3000 g/ha is 60.1%.

Q: What about the pest or weed control at 1500 g/ha (Capsella bursa-pastoris; Capsella bursa-pastoris, 480 h, dosage 1500 g/hm^2, read-out: actual fresh weight inhibition rate) of the same compound?
A: The pest or weed control at 1500 g/ha was 33.5%.

Q: And the pest or weed control at 2250 g/ha (Capsella bursa-pastoris; Capsella bursa-pastoris, 480 h, dosage 2250 g/hm^2, read-out: actual fresh weight inhibition rate)?
A: Its pest or weed control at 2250 g/ha is 43.7%.

Q: And the pest or weed control at 3000 g/ha (Capsella bursa-pastoris; Capsella bursa-pastoris, 480 h, dosage 3000 g/hm^2, read-out: actual fresh weight inhibition rate)?
A: Its pest or weed control at 3000 g/ha is 57.3%.

Q: With `O=C(Nc1ccc(F)cc1F)c1cccnc1Oc1cccc(C(F)(F)F)c1` [diflufenican] as the compound, how does the pest or weed control at 40 g/ha (Myosoton aquaticum; Myosoton aquaticum, 480 h, Myosoton aquaticum, 40 g/hm^2, read-out: actual fresh weight inhibition rate) read?
A: Its pest or weed control at 40 g/ha is 24.1%.

Q: And the pest or weed control at 80 g/ha (Myosoton aquaticum; Myosoton aquaticum, 480 h, Myosoton aquaticum, 80 g/hm^2, read-out: actual fresh weight inhibition rate)?
A: The pest or weed control at 80 g/ha was 46.2%.

Q: What about the pest or weed control at 120 g/ha (Myosoton aquaticum; Myosoton aquaticum, 480 h, Myosoton aquaticum, 120 g/hm^2, read-out: actual fresh weight inhibition rate) of the same compound?
A: Its pest or weed control at 120 g/ha is 66.5%.

Q: And the pest or weed control at 40 g/ha (Capsella bursa-pastoris; 480 h, Capsella bursa-pastoris, 40 g/hm^2, read-out: actual fresh weight inhibition rate)?
A: Its pest or weed control at 40 g/ha is 33.1%.

Q: And the pest or weed control at 80 g/ha (Capsella bursa-pastoris; 480 h, Capsella bursa-pastoris, 80 g/hm^2, read-out: actual fresh weight inhibition rate)?
A: The pest or weed control at 80 g/ha was 48.2%.

Q: What about the pest or weed control at 120 g/ha (Capsella bursa-pastoris; 480 h, Capsella bursa-pastoris, 120 g/hm^2, read-out: actual fresh weight inhibition rate) of the same compound?
A: Its pest or weed control at 120 g/ha is 63.4%.

Q: For `CN(C)C(=O)SCCCCOc1ccccc1` [fenothiocarb], which pest or weed control at 40 g/ha (Myosoton aquaticum; [1]) is on record?
A: Its pest or weed control at 40 g/ha is 70.3%.

Q: And the pest or weed control at 65 g/ha (Myosoton aquaticum; [1])?
A: Its pest or weed control at 65 g/ha is 84.5%.

Q: What about the pest or weed control at 90 g/ha (Myosoton aquaticum; [1]) of the same compound?
A: Its pest or weed control at 90 g/ha is 97.3%.

Q: And the pest or weed control at 40 g/ha (Capsella bursa-pastoris; [2])?
A: Its pest or weed control at 40 g/ha is 0%.

Q: And the pest or weed control at 65 g/ha (Capsella bursa-pastoris; [2])?
A: The pest or weed control at 65 g/ha was 0%.

Q: What about the pest or weed control at 90 g/ha (Capsella bursa-pastoris; [2]) of the same compound?
A: The pest or weed control at 90 g/ha was 0%.

Q: Which “actual fresh weight inhibition rate” value (Myosoton aquaticum; Myosoton aquaticum, 2.5 g/hm^2) does the source give for `COc1ncc(F)c2nc(S(=O)(=O)Nc3c(F)cccc3F)nn12` [florasulam] here?
A: Its value is 28.3%.

Q: What about the “actual fresh weight inhibition rate” value (Myosoton aquaticum; Myosoton aquaticum, 5 g/hm^2) of the same compound?
A: The value was 41.9%.

Q: What about the “actual fresh weight inhibition rate” value (Capsella bursa-pastoris; Capsella bursa-pastoris, 2.5 g/hm^2) of the same compound?
A: Its value is 45.8%.

Q: What about the “actual fresh weight inhibition rate” value (Capsella bursa-pastoris; Capsella bursa-pastoris, 5 g/hm^2) of the same compound?
A: The value was 60.4%.

Q: With `O=C(O)COC(=O)c1cc(Oc2ccc(C(F)(F)F)cc2Cl)ccc1[N+](=O)[O-]` [fluoroglycofen, reference compound] as the compound, how does the “actual fresh weight inhibition rate (%)” value (Myosoton aquaticum; dosage 5 g/hm^2) read?
A: Its value is 37.9%.

Q: What about the “actual fresh weight inhibition rate (%)” value (Myosoton aquaticum; dosage 10 g/hm^2) of the same compound?
A: The value was 41.8%.

Q: What about the “actual fresh weight inhibition rate (%)” value (Myosoton aquaticum; dosage 15 g/hm^2) of the same compound?
A: Its value is 55.4%.

Q: And the “actual fresh weight inhibition rate (%)” value (Capsella bursa-pastoris; dosage 5 g/hm^2)?
A: Its value is 47.4%.

Q: What about the “actual fresh weight inhibition rate (%)” value (Capsella bursa-pastoris; dosage 10 g/hm^2) of the same compound?
A: The value was 61.6%.

Q: And the “actual fresh weight inhibition rate (%)” value (Capsella bursa-pastoris; dosage 15 g/hm^2)?
A: The value was 70.5%.

Q: With `Nc1c(Cl)c(F)nc(OCC(=O)O)c1Cl` [fluroxypyr, reference compound] as the compound, how does the “actual fresh weight inhibition rate (%)” value (Myosoton aquaticum; dosage 100 g/hm^2) read?
A: The value was 90.1%.

Q: And the “actual fresh weight inhibition rate (%)” value (Myosoton aquaticum; dosage 150 g/hm^2)?
A: The value was 100%.

Q: What about the “actual fresh weight inhibition rate (%)” value (Myosoton aquaticum; dosage 200 g/hm^2) of the same compound?
A: Its value is 100%.

Q: What about the “actual fresh weight inhibition rate (%)” value (Capsella bursa-pastoris; dosage 100 g/hm^2) of the same compound?
A: Its value is 10.1%.

Q: What about the “actual fresh weight inhibition rate (%)” value (Capsella bursa-pastoris; dosage 150 g/hm^2) of the same compound?
A: The value was 18.3%.

Q: What about the “actual fresh weight inhibition rate (%)” value (Capsella bursa-pastoris; dosage 200 g/hm^2) of the same compound?
A: Its value is 28.7%.

Q: With `COC(=O)c1nc(-c2ccc(Cl)c(OC)c2F)cc(N)c1Cl` [halauxifen-methyl, reference compound] as the compound, how does the “actual fresh weight inhibition rate (%)” value (Myosoton aquaticum; dosage 5 g/hm^2) read?
A: Its value is 17.5%.

Q: And the “actual fresh weight inhibition rate (%)” value (Myosoton aquaticum; dosage 10 g/hm^2)?
A: Its value is 35.6%.

Q: And the “actual fresh weight inhibition rate (%)” value (Capsella bursa-pastoris; dosage 5 g/hm^2)?
A: Its value is 59.7%.

Q: What about the “actual fresh weight inhibition rate (%)” value (Capsella bursa-pastoris; dosage 10 g/hm^2) of the same compound?
A: The value was 71.4%.

Q: Which pest or weed control at 30 g/ha (Myosoton aquaticum; [1]) does the source give for `COC(=O)c1c(Cl)nn(C)c1S(=O)(=O)NC(=O)Nc1nc(OC)cc(OC)n1` [halosulfuron-methyl] here?
A: The pest or weed control at 30 g/ha was 14.5%.

Q: And the pest or weed control at 50 g/ha (Myosoton aquaticum; [1])?
A: The pest or weed control at 50 g/ha was 34.9%.

Q: What about the pest or weed control at 70 g/ha (Myosoton aquaticum; [1]) of the same compound?
A: The pest or weed control at 70 g/ha was 50.5%.

Q: And the pest or weed control at 30 g/ha (Capsella bursa-pastoris; [2])?
A: Its pest or weed control at 30 g/ha is 17.9%.

Q: And the pest or weed control at 50 g/ha (Capsella bursa-pastoris; [2])?
A: Its pest or weed control at 50 g/ha is 27.8%.

Q: And the pest or weed control at 70 g/ha (Capsella bursa-pastoris; [2])?
A: Its pest or weed control at 70 g/ha is 44.1%.

Q: `CC(C)c1ccc(NC(=O)N(C)C)cc1` [isoproturon] was tested. Which pest or weed control at 300 g/ha (Myosoton aquaticum; Myosoton aquaticum, 480 h, Myosoton aquaticum, 300 g/hm^2, read-out: actual fresh weight inhibition rate) did it give?
A: Its pest or weed control at 300 g/ha is 19.4%.

Q: What about the pest or weed control at 750 g/ha (Myosoton aquaticum; Myosoton aquaticum, 480 h, Myosoton aquaticum, 750 g/hm^2, read-out: actual fresh weight inhibition rate) of the same compound?
A: The pest or weed control at 750 g/ha was 26.4%.

Q: And the pest or weed control at 1200 g/ha (Myosoton aquaticum; Myosoton aquaticum, 480 h, Myosoton aquaticum, 1200 g/hm^2, read-out: actual fresh weight inhibition rate)?
A: The pest or weed control at 1200 g/ha was 47.5%.

Q: And the pest or weed control at 300 g/ha (Capsella bursa-pastoris; 480 h, Capsella bursa-pastoris, 300 g/hm^2, read-out: actual fresh weight inhibition rate)?
A: The pest or weed control at 300 g/ha was 21.7%.

Q: What about the pest or weed control at 750 g/ha (Capsella bursa-pastoris; 480 h, Capsella bursa-pastoris, 750 g/hm^2, read-out: actual fresh weight inhibition rate) of the same compound?
A: The pest or weed control at 750 g/ha was 33.7%.

Q: And the pest or weed control at 1200 g/ha (Capsella bursa-pastoris; 480 h, Capsella bursa-pastoris, 1200 g/hm^2, read-out: actual fresh weight inhibition rate)?
A: Its pest or weed control at 1200 g/ha is 57.2%.
